Values joined by “and” are separate entries in the source; they are usually repeats but may differ in a detail not shown here. Identical values can stand only once. Like-named read-outs stand apart in the source and are kept apart here.
Experiments:
human factor XIa = target: T1, human factor XIa (Homo sapiens, UniProt P03951); experiment: Direct inhibition of factor XIa, chromogenic substrate S-2366 hydrolysis assay; type: biochemical; conditions: for IC50: read-out: IC50 (converted)
T1 construct: purchased Haematologic Technologies (Essex Junction, Vt.); host or cells: human plasma
T1 sequence (P03951 19-387 limits assumed): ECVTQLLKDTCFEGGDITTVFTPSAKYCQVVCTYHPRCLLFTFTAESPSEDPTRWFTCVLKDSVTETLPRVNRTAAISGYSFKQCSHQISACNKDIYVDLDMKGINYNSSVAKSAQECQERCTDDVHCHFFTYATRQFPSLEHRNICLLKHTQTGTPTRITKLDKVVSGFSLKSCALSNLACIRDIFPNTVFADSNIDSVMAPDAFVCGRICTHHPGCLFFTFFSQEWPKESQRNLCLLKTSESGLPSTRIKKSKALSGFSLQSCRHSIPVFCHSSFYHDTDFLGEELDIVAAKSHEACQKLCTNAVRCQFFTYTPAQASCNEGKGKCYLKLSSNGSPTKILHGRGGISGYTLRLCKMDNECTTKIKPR
T1 sequence (P03951 388-625 limits assumed): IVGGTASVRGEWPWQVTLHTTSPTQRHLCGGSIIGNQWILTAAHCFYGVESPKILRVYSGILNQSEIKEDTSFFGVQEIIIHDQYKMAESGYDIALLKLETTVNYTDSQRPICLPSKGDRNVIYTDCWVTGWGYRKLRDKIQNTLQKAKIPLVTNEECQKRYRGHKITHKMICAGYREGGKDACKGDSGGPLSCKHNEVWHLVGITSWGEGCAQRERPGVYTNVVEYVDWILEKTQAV
Protocol: Solvent A consisted of 25 mM n-hexylamine in water containing 0.1% (v/v) formic acid, while solvent B consisted of 25 mM n-hexylamine in acetonitrile-water mixture (3:1 v/v) containing 0.1% (v/v) formic acid. […] The sample was first monitored for absorbance in the range of 190-400 nm and then directly introduced into the mass spectrometer. ESI-MS detection was performed in positive ion mode for which the capillary voltage was 4 kV, cone voltage was 20 V, desolvation temperature was 350° C. and nitrogen gas flow was maintained at 650 L/hr. Mass scans were collected in the range of 1000-2048 amu within 0.25 s and several of these added to enhanced signal-to-noise ratio. Direct Inhibition of Factor XIa. […] After 10 min incubation, 5 μL factor XIa substrate (345 μM) was rapidly added and the residual FXIa activity was measured from the initial rate of increase in absorbance at 405 nm. […] Relative residual FXIa activity at each concentration of the inhibitor was calculated from the ratio of FXIa activity in the presence and absence of the inhibitor. Logistic equation 1 was used to fit the dose-dependence of residual protease activity to obtain the potency (IC50) and efficacy (ΔY) of inhibition.
Direct Inhibition of Factor XIa by Sulfated QAOs was performed as described in Example 1.
The ability of the sulfated inositol analogs to inhibit factor XIa was studied using the in vitro assay described in Example 1. In this assay, the factor XIa enzyme is anticipated to hydrolyze a particular peptide linkage in the corresponding peptide substrate releasing p-nitroaniline which absorbs at wavelength of 405 nm giving a line slope corresponds to the enzyme activity. The line slope of no inhibitor status is considered as a reference slope and it depends on the relative concentrations of factor XIa enzyme and its substrate. Factor XIa enzyme concentration was decided to get appropriate reference slope of approximately 25-35, whereas the substrate concentration was set to be larger than its affinity to factor XIa enzyme under equilibrium condition, Km. In presence of potential factor XIa inhibitor, the enzyme capacity to hydrolyze the designated peptide linkage in the substrate gets diminished or completely abolished depending on the inhibitor concentration and efficacy. […] Such decreased slope reflects a drop in the catalytic enzyme activity of factor XIa.

thrombin = target: T2, thrombin (Homo sapiens, UniProt P00734); experiment: Thrombin chromogenic substrate hydrolysis assay; type: biochemical
T2 construct: purchased Haematologic Technologies (Essex Junction, Vt.); host or cells: human plasma
Protocol: (§1) Plasma FIX (500 nM) was incubated with human FXIa (3 nM) in 50 mM Hepes buffer, pH 7.4, containing 125 mM NaCl, 5 mM CaCl2, and 0.1 mg/mL bovine serum albumin at 24° C. […] The primary antibody was goat anti-human FIX polyclonal IgG (Enzyme Research Laboratories, South Bend, Tenn.), and the secondary antibody was horseradish peroxidase-conjugated anti-goat IgG. Detection was by chemiluminescence. […] The inhibition profile was determined over a range of inhibitor concentrations to determine the IC50 of the enzyme-inhibitor complex. The KM of the substrate for its enzyme was used to identify the concentration of the substrate to be used for inhibition studies. […] Active site concentrations for preparations of FXIa were determined by titrations with human antithrombin in an S-2366 cleavage assay. The reaction was monitored using a SpectraMax 340 microtiter plate reader (Molecular Devices Corp., Sunnyvale, Calif.) with a reaction volume of 100 μL and path length of 3 mm. Each assay was performed in triplicate. The concentration of S-2366 was measured using an absorption coefficient of 8,266 M-1cm-1 at λ342 nm, while the free p-nitroaniline concentration was calculated using an absorption coefficient of 9,933 M cm^−1 at λ405 nm. The data was fitted using the standard Michaelis-Menten equation to determine the KM and VMAX. Results
Inhibition of Proteases of the Coagulation and Digestive Systems by 16S. The inhibition potential of 500 μM SAM (16S, 15S, 13S) against coagulation enzymes including thrombin and factor Xa and digestive enzymes including trypsin and chymotrypsin was evaluated using chromogenic substrate hydrolysis assays reported in the literature.^2,3,6 These assays were performed using substrates appropriate for the enzyme being studied under conditions closest to the physiological condition (37° C. and pH 7.4), except for thrombin, which was performed at 25° C. and pH 7.4. The concentrations of enzymes and substrates in microplate wells, respectively, were: 6 nM and 50 μM for thrombin; 1.09 nM and 125 μM for factor Xa, 2.5 ng/ml and 80 μM for bovine trypsin; and 500 ng/ml and 240 μM for bovine chymotrypsin. The ratio of the proteolytic activity of an enzyme in the presence of the sulfated QAO to that in its absence was used to calculate percent inhibition (%).

human FXIa = target: T3, human FXIa (Homo sapiens, UniProt P03951); experiment: Inhibition of FXIa activation of FIX, Western blotting; type: biochemical
T3 construct: purchased Haematologic Technologies (Essex Junction, Vt.); host or cells: human plasma
T3 sequence (P03951 19-387 limits assumed): as the sequence (P03951 19-387 limits assumed) above
T3 sequence (P03951 388-625 limits assumed): as the sequence (P03951 388-625 limits assumed) above
Protocol: as §1

[1] = target: T4, FXIa catalytic domain (FXIa-CD) (Homo sapiens, UniProt P03951, C500S); experiment: Michaelis-Menten kinetics of S-2366 hydrolysis by FXIa catalytic domain; type: biochemical
T4 construct: eliminating the bond allows the catalytic domain of FXIa (FXIa-CD) to separate from the heavy chain; made in house; host or cells: HEK-293
T4 sequence (P03951 388-625 C500S): as the sequence (P03951 388-625 limits assumed) above, with C113S counted along it
Protocol: as §1

human plasma = experiment: Prothrombin time (PT) plasma clotting assay; type: biochemical
Protocol: Plasma clotting assays, prothrombin and activated partial thromboplastin time (PT and APTT, respectively), are routinely used to assess the anticoagulation potential of new enzyme inhibitors in an in vitro setting. Whereas PT measures the effect of an inhibitor on the extrinsic pathway of coagulation, APTT measures the effect on the intrinsic pathway.
Prothrombin Time (PT) and Activated Partial Thromboplastin Time (APTT) were assessed as described in Example 1.

C57Bl/6 mice = experiment: FeCl3 carotid artery thrombosis model; type: in vivo
Protocol: Exposure of the carotid artery of C57Bl/6 mice to FeCl3 (either 3.5% or 5.0%) results in formation of an occlusive platelet-rich thrombus within 15 minute.

efficacy of FXIa inhibition (human factor XIa; chromogenic substrate): ~100% and 97%
ΔY (human factor XIa; efficacy of inhibition): 97.1 ± 3.2
HS (Hill slope) (human factor XIa; pH 7.4, 37° C.): 1.3 and 1.3 ± 0.1
IC50 (human factor XIa; pH 7.4, 37° C., S-2366): 689 nM
IC50 (human factor XIa; translated with average molecular weight 2178 g/mol): ~550 nM and 551 nM
HS (thrombin): 0.5 ± 0.1
IC50 (thrombin): 700000 nM
ΔY (thrombin): 83 ± 10
selectivity over thrombin (thrombin; FXIa vs thrombin): 1016 fold
formation of FIXαβ (human FXIa; 3 μM SPGG, FIX 0.5 μM, after 120 min of incubation): not detectable
inhibition at 3 µM (human FXIa; read-out: efficacy of inhibition of FIX activation by FXIa): ~100%
decrease in VMAX ([1]; SPGG 0 to 5.0 μg/mL): ~5 fold
VMAX ([1]; [SPGG] 0.005 μg/mL): 87.0 ± 2.2 mAU/min
VMAX ([1]; [SPGG] 0.5 μg/mL): 53.9 ± 1.4 mAU/min
VMAX ([1]; [SPGG] 5.0 μg/mL): 22.6 mAU/min and 22.6 ± 1.4 mAU/min
Structure (SMILES): O=C(OC[C@H]1O[C@@H](OC(=O)c2cc(OS(=O)(=O)O)c(O)c(OS(=O)(=O)O)c2)[C@H](OC(=O)c2cc(OS(=O)(=O)O)c(O)c(OS(=O)(=O)O)c2)[C@@H](OC(=O)c2cc(OS(=O)(=O)O)c(O)c(OS(=O)(=O)O)c2)[C@@H]1OC(=O)c1cc(OS(=O)(=O)O)c(O)c(OS(=O)(=O)O)c1)c1cc(OS(=O)(=O)O)c(O)c(OS(=O)(=O)O)c1 [SPGG, Sulfated Pentagalloylglucoside]
concentration for 2-fold increase in PT (human plasma): 298 µg/mL
arteries in which thrombosis was prevented (C57Bl/6 mice; 3.5% FeCl3, doses of 0.025 to 0.2 mg injected 10 min before FeCl3): ~100%
protection of vessels from occlusion (C57Bl/6 mice; 5.0% FeCl3, dose of 0.2 mg): protected all vessels from occlusion
